Data: patent publication US20260242338A1, “CRYSTALS OF N[…]” (KYOTO DRUG DISCOVERY & DEVELOPMENT CO., LTD., priority 2022, published 2026)
Like-named read-outs stand apart in the source and are kept apart here.

Format: physicochemical
Experimental: X-ray powder diffraction data were acquired using PhotonMax high-flux 9 KW rotating cathode X-ray generator (SmartLab 9 KW, Rigaku). All diffractograms were acquired using copper radiation (CuKα, 45 kV/200 mA, λ=1.5418 Å) and using KB filter to reduce unneeded radiation. The measurement was carried out by placing the sample gently crushed in an agate mortar on a measurement stand and then scanning the sample under 2θscanning conditions with a scanning range of 3° to 40°, a scanning speed of 20°/min, and a step size of 0.02°.
X-ray powder diffraction data were acquired using a diffractometer (MiniFlex 600, Rigaku). All diffractograms were acquired using copper radiation (CuKα, 40 kV/15 mA, λ=1.5418 Å) and using KB filter to reduce unneeded radiation. Scanning was carried out in 2θ with a scanning range of 5° to 50°, a scanning speed of 5°/min, and a step size of 0.02°.
The water content was measured using a coulometric moisture meter (CA-100, Nitto Seiko Analytech), using about 0.5 g of the solid sample, Aquamicron GEX as the solvent, and 3 mg of Aquamicron SS as a titrant.
The water content was measured using a Karl Fischer moisture meter (AQUACOUNTER AQV-2100, HIRANUMA) equipped with an electrolytic bath stirrer for iodine generation and a constant current potentiometer, using about 0.2 g of the solid sample, Aquamicron GEX as the solvent, and 3 mg of Aquamicron SS-Z as a titrant.
The crystal of KUS121 dihydrate was subjected to a normal storage stability test (25° C./60% RH, 18 months) and a storage stability test under accelerated test condition (40° C./75% RH, 6 months). For comparison, the crystal of KUS121 anhydride was also subjected to storage stability tests under accelerated test condition (40° C./75% RH, 6 months) and under ambient temperature condition (30 months).

[1] = 40° C./75% RH (6 months), dihydrate

| Structure (SMILES) | Content (40° C./75% RH (6 months)) | Purity test (40° C./75% RH (6 months)) | Water content (40° C./75% RH (6 months)) | Water content (Ambient temperature (30 months)) | Content (Initial) | Purity test (Initial) | Water content (Initial) | Content (25° C./60% RH (18 months)) | Related substance (25° C./60% RH (18 months)) | Water content (25° C./60% RH (18 months)) | Related substance (40° C./75% RH (6 months)) | Content [1] | Water content [1] | Related substance (Initial) | Content (Initial, dihydrate) | Water content (Initial, dihydrate) | Storage stability (overall statement) (compared with other hydrate crystals, accelerated test condition) |
| --- | --- | --- | --- | --- | --- | --- | --- | --- | --- | --- | --- | --- | --- | --- | --- | --- | --- |
| Cc1cc(F)ccc1-c1ccc(/N=N/c2cc(S(=O)(=O)[O-])c3ccccc3c2N)cn1.[Na+] [Crystal of KUS121 anhydride, Sodium 4-amino-3-[6-(4-fluoro-2-methylphenyl)pyridin-3-ylazo]naphthalene-1-sulfonate] | 100.8% | 99.5% | 3.0% | 9.1% | 98.2% | 99.5% | 0.8% | – | – | – | – | – | – | – | – | – | – |
| Cc1cc(F)ccc1-c1ccc(/N=N/c2cc(S(=O)(=O)[O-])c3ccccc3c2N)cn1.[Na+] [Crystal of KUS121 dihydrate, sodium 4-amino-3-[6-(4-fluoro-2-methylphenyl)pyridin-3-ylazo]naphthalene-1-sulfonate dihydrate] | – | – | – | – | – | – | – | 99.6% | 0.11% | 7.4% | 0.09% | 99.6% | 7.4% | 0.07% | 99.7% | 7.4% | had better storage stability than other hydrate crystals, and was extremely stable even under accelerated test condition |
